PubChem BioAssay (NCI)
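How tested: cells in 96-well plates exposed to compound for 48 hours at five concentrations. TGI: total growth inhibition.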

How the values were obtained:
Assay in all cases: growth of human tumour cells (NCI), 48 h
[1] = test system: BT-549 breast
[2] = test system: EKVX NSCLC
[3] = test system: HL-60(TB) leukemia
[4] = test system: HOP-92 NSCLC
[5] = test system: IGROV1 ovarian
[6] = test system: MDA-MB-435
[7] = test system: NCI/ADR-RES ovarian
[8] = test system: RPMI-8226 leukemia
[9] = test system: SF-268 CNS
[10] = test system: SF-539 CNS
[11] = test system: SK-MEL-28 melanoma

| Compound | TGI [1] | TGI [2] | TGI [3] | TGI [4] | TGI [5] | TGI [6] | TGI [7] | TGI [8] | TGI [9] | TGI [10] | TGI [11] |
| --- | --- | --- | --- | --- | --- | --- | --- | --- | --- | --- | --- |
| CCOP(=O)(OCC)OC1c2[nH]cc(C(=O)OCc3ccccc3)c2-c2cc(C(=O)OC)[nH]c2C1OC (stereo not given) | 45.9 µM | 70.7 µM | > 100 µM | 26.3 µM | 31.6 µM | > 100 µM | 59.5 µM | > 100 µM | > 96 µM | > 43.7 µM | > 100 µM |
| CC1=C(C(=O)N[C@@H](CC(C)C)C(=O)O)N2C(=O)[C@@H](NC(=O)C(N)c3ccccc3)[C@H]2SC1 (stereo not given in full) | > 100 µM | > 100 µM | > 100 µM | > 100 µM | > 100 µM | > 100 µM | > 100 µM | > 100 µM | > 100 µM | > 100 µM | > 100 µM |
| COc1ccc(/C=C2\C[C@H]3[C@@H]4CCC5=CC(=O)CC[C@]5(C)[C@H]4CC[C@]3(C)C2=O)cc1OC | > 100 µM | 61.2 µM | 6.91 µM | > 100 µM | > 100 µM | > 100 µM | > 100 µM | 47.3 µM | > 100 µM | > 100 µM | > 100 µM |
| O=C(N/N=C/c1ccccc1)c1cccc2nc3ccccc3nc12 | > 100 µM | > 100 µM | > 100 µM | > 100 µM | > 100 µM | > 100 µM | > 100 µM | > 100 µM | > 100 µM | > 100 µM | > 100 µM |
| COc1cccc(/C=C2\S/C(=N/Nc3nc(-c4ccc([N+](=O)[O-])cc4)cs3)NC2=O)c1O | 20 µM | 43 µM | > 100 µM | 33.6 µM | 27.1 µM | 42.2 µM | 53.3 µM | 35.2 µM | 21.8 µM | 22 µM | 39.5 µM |
